Measured values published in patent publication US20250019377A1 (JACOBIO PHARMACEUTICALS CO., LTD, priority 2021, published 2025).
Values joined by “and” are separate entries in the source; they are usually repeats but may differ in a detail not shown here. Equal values may be shown once. Read-outs that look alike come from different tables or passages of the source.

Legend:
[1] = molecular target: T1, K-Ras G12D (Homo sapiens, UniProt P01116, G12D); test: GTP-K-Ras and cRAF interaction assay (GppNp-K-Ras), K-Ras G12D; settings: read-out: K-Ras G12D GppNp Biochemical Activity (IC50)
T1 sequence (P01116 1-169 isoform P01116-2 G12D): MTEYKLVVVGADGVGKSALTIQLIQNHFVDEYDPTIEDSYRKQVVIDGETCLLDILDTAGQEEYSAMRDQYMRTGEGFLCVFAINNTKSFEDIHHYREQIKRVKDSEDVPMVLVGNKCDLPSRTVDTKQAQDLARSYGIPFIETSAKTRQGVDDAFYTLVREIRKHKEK

[2] = molecular target: T2, K-Ras G12A (Homo sapiens, UniProt P01116, G12A); test: SOS1 catalyzed nucleotide exchange assay (GDP form K-Ras), K-Ras G12A; settings: read-out: K-Ras G12A GDP Biochemical Activity (IC50)
T2 sequence (P01116 1-169 isoform P01116-2 G12A): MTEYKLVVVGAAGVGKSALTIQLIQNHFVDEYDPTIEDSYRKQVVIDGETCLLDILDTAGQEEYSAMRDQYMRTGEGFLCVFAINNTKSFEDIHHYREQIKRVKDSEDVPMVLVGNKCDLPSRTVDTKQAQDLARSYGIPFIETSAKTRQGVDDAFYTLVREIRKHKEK

[3] = molecular target: T3, K-Ras G12R (Homo sapiens, UniProt P01116, G12R); test: SOS1 catalyzed nucleotide exchange assay (GDP form K-Ras), K-Ras G12R; settings: read-out: K-Ras G12R GDP Biochemical Activity (IC50)
T3 sequence (P01116 1-169 isoform P01116-2 G12R): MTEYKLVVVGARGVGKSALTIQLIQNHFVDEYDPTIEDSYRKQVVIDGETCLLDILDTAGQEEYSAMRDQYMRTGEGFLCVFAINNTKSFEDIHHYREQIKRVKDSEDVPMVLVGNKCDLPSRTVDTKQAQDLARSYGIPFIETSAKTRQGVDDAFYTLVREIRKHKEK

[4] = molecular target: T4, K-Ras WT (Homo sapiens, UniProt P01116); test: SOS1 catalyzed nucleotide exchange assay (GDP form K-Ras), K-Ras WT; settings: read-out: K-Ras WT GDP Biochemical Activity (IC50)
T4 sequence (P01116 1-169 isoform P01116-2): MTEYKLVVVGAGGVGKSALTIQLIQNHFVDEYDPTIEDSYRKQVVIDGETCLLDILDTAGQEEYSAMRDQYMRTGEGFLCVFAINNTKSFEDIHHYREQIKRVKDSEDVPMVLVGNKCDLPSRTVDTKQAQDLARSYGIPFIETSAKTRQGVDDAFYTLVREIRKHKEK

[5] = molecular target: T2, K-Ras G12A; test: GTP-K-Ras and cRAF interaction assay (GppNp-K-Ras), K-Ras G12A; settings: read-out: K-Ras G12A GppNp Biochemical Activity (IC50)
[6] = molecular target: T5, K-Ras G12C (Homo sapiens, UniProt P01116, G12C); test: SOS1 catalyzed nucleotide exchange assay (GDP form K-Ras), K-Ras G12C; settings: read-out: K-Ras G12C GDP Biochemical Activity (IC50)
T5 sequence (P01116 1-169 isoform P01116-2 G12C): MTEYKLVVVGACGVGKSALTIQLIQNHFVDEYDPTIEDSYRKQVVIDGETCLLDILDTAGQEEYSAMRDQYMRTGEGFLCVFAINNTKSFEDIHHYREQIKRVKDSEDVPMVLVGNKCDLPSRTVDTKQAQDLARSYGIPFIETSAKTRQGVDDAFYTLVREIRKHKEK

[7] = molecular target: T6, K-Ras G12V (Homo sapiens, UniProt P01116, G12V); test: SOS1 catalyzed nucleotide exchange assay (GDP form K-Ras), K-Ras G12V; settings: read-out: K-Ras G12V GDP Biochemical Activity (IC50)
T6 sequence (P01116 1-169 isoform P01116-2 G12V): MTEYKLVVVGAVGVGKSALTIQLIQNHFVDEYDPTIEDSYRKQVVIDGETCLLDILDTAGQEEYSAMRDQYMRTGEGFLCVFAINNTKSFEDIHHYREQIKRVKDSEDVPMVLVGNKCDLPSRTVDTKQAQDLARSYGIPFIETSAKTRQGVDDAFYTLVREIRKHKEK

[8] = molecular target: T5, K-Ras G12C; test: GTP-K-Ras and cRAF interaction assay (GppNp-K-Ras), K-Ras G12C; settings: read-out: K-Ras G12C GppNp Biochemical Activity (IC50)
[9] = molecular target: T7, K-Ras G13D (Homo sapiens, UniProt P01116, G13D); test: GTP-K-Ras and cRAF interaction assay (GppNp-K-Ras), K-Ras G13D; settings: read-out: K-Ras G13D GppNp Biochemical Activity (IC50)
T7 sequence (P01116 1-169 isoform P01116-2 G13D): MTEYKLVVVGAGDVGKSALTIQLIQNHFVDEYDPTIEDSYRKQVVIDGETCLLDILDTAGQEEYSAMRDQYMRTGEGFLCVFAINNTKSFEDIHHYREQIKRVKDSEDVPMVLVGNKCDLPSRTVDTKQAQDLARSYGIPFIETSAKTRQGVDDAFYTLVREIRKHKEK

[10] = molecular target: T3, K-Ras G12R; test: GTP-K-Ras and cRAF interaction assay (GppNp-K-Ras), K-Ras G12R; settings: read-out: K-Ras G12R GppNp Biochemical Activity (IC50)
[11] = molecular target: T7, K-Ras G13D
[12] = molecular target: T4, K-Ras WT; test: GTP-K-Ras and cRAF interaction assay (GppNp-K-Ras), K-Ras WT; settings: read-out: K-Ras WT GppNp Biochemical Activity (IC50)
[13] = molecular target: T1, K-Ras G12D
[14] = molecular target: T8, K-Ras Q61H (Homo sapiens, UniProt P01116, Q61H); test: GTP-K-Ras and cRAF interaction assay (GppNp-K-Ras), K-Ras Q61H; settings: read-out: K-Ras Q61H GppNp Biochemical Activity (IC50)
T8 sequence (P01116 1-169 isoform P01116-2 Q61H): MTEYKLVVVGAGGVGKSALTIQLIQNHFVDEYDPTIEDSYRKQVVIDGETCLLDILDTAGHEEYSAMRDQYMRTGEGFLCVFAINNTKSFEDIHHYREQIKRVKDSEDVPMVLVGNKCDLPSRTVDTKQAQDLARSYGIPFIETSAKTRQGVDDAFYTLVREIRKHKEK

[15] = molecular target: T6, K-Ras G12V; test: GTP-K-Ras and cRAF interaction assay (GppNp-K-Ras), K-Ras G12V; settings: read-out: K-Ras G12V GppNp Biochemical Activity (IC50)
[16] = molecular target: T8, K-Ras Q61H; test: SOS1 catalyzed nucleotide exchange assay (GDP form K-Ras), K-Ras Q61H; settings: read-out: K-Ras Q61H GDP Biochemical Activity (IC50)
[17] = molecular target: T4, K-Ras WT; test: biochemical
[18] = molecular target: T6, K-Ras G12V; test: biochemical
[19] = molecular target: T7, K-Ras G13D; test: biochemical
[20] = tested on: p-ERK in SW620 cells (K-Ras G12V); test: Phospho-ERK1/2(THR202/TYR204) HTRF assay, SW620; type: cell-based; settings: Homo sapiens, SW-620, 2 h, 2 hours incubation
[21] = molecular target: T1, K-Ras G12D; test: biochemical
[22] = tested on: p-ERK in AGS cells (K-Ras G12D); test: Phospho-ERK1/2(THR202/TYR204) HTRF assay, AGS; type: cell-based; settings: Homo sapiens, 2 h, 2 hours incubation
[23] = molecular target: T7, K-Ras G13D; test: biochemical; remark: listed apart in the source
[24] = tested on: AsPC-1 cells (K-Ras G12D); test: 2D cell growth inhibition assay, AsPC-1; type: cell-based; settings: Homo sapiens, ASPC1, 144 h, AsPC-1, K-Ras G12D, 6 days, absolute IC50
[25] = tested on: p-ERK in TCC-PAN2 cells (K-Ras G12R); test: Phospho-ERK1/2(THR202/TYR204) HTRF assay, TCC-PAN2; type: cell-based; settings: 2 hours incubation
[26] = tested on: NCI-H747 cells (K-Ras G13D)
[27] = tested on: p-ERK in NCI-H460 cells (K-Ras Q61H); test: Phospho-ERK1/2(THR202/TYR204) HTRF assay, NCI-H460; type: cell-based; settings: Homo sapiens, 2 hours incubation
[28] = tested on: SW620 cells (K-Ras G12V); test: 2D cell growth inhibition assay, SW620; type: cell-based; settings: Homo sapiens, SW-620, 144 h, 6 days, absolute IC50
[29] = tested on: TCC-PAN2 cells (K-Ras G12R); test: 3D cell growth inhibition assay, TCC-PAN2; type: cell-based; settings: 144 h, 6 days, absolute IC50
[30] = tested on: NCI-H460 cells (K-Ras Q61H); test: 3D cell growth inhibition assay, NCI-H460; type: cell-based; settings: Homo sapiens, 144 h, 6 days, absolute IC50
[31] = tested on: NCI-H358 cells (K-Ras G12C)
[32] = tested on: MKN-1 cells (K-Ras WT); test: 3D cell growth inhibition assay, MKN-1; type: cell-based; settings: Homo sapiens, 144 h, MKN-1, K-Ras WT, 6 days, absolute IC50
[33] = tested on: p-ERK in NCI-H358 cells (K-Ras G12C); test: Phospho-ERK1/2(THR202/TYR204) HTRF assay, NCI-H358; type: cell-based; settings: Homo sapiens, 2 hours incubation
[34] = tested on: Capan-2 cells (K-Ras G12V)
[35] = tested on: p-ERK in MKN-1 cells (K-Ras WT amplification); test: Phospho-ERK1/2(THR202/TYR204) HTRF assay, MKN-1; type: cell-based; settings: Homo sapiens; MKN-1, K-Ras WT, 2 hours incubation
[36] = tested on: p-ERK in NCI-H747 cells (K-Ras G13D)
[37] = tested on: RERF-LC-Ad1 cells (K-Ras G12A)
[38] = tested on: AGS cells (K-Ras G12D); test: 2D cell growth inhibition assay, AGS; type: cell-based; settings: Homo sapiens, 144 h, 6 days, absolute IC50
[39] = molecular target: T1, K-Ras G12D; test: biochemical; remark: listed apart in the source

IC50 [1] [nM]	IC50 [4]	IC50 [7]	IC50 [9] [nM]	IC50 [11] [nM]	IC50 [12] [nM]	IC50 [13] [nM]	IC50 [15] [nM]	IC50 [20] [nM]	IC50 [22] [nM]	IC50 [24] [nM]	IC50 [28] [nM]	IC50 [38] [nM]	SMILES	IC50 [2] [nM]	IC50 [3] [nM]	IC50 [5] [nM]	IC50 [6] [nM]	IC50 [8] [nM]	IC50 [10] [nM]	IC50 [14] [nM]	also measured
–	14.4 nM and 67.9 nM	4.95 nM and 39 nM	–	–	–	–	–	238	203	–	–	–	C#Cc1c(F)ccc2cc(O)cc(-c3ncc4c(N5CCOCC(C)(OC)C5)nc(OC[C@@]56CCCN5C[C@H](F)C6)nc4c3F)c12 (stereo partly drawn) [Compound 109, 5-ethynyl-6-fluoro-4-(8-fluoro-2-(((2R,7aS)-2-fluorotetrahydro-1H-pyrrolizin-7a(5H)-yl)methoxy)-4-(6-methoxy-6-methyl-1,4-oxazepan-4-yl)pyrido[4,3-d]pyrimidin-7-yl)naphthalen-2-ol]	–	–	–	–	–	–	–	IC50 [17]: 1260 nM; IC50 [18]: 2220 nM and > 10000 nM; IC50 [19]: 29.3 nM; IC50 [21]: 916 nM and 8230 nM; IC50 [23]: > 100 nM
–	3.18 nM	2.75 nM	–	–	–	–	–	138	33.8	693	196	40.1	C#Cc1c(F)ccc2cc(O)cc(-c3ncc4c(N5CCOCC(C)(O)C5)nc(OC[C@@]56CCCN5C[C@H](F)C6)nc4c3F)c12 (stereo partly drawn) [Compound 23, 4-(7-(8-ethynyl-7-fluoro-3-hydroxynaphthalen-1-yl)-8-fluoro-2-(((2R,7aS)-2-fluorotetrahydro-1H-pyrrolizin-7a(5H)-yl)methoxy)pyrido[4,3-d]pyrimidin-4-yl)-6-methyl-1,4-oxazepan-6-ol trifluoroacetic acid]	–	–	–	–	–	–	–	IC50 [17]: 134 nM; IC50 [18]: 239 nM; IC50 [39]: 1.99 nM; IC50 [19]: > 100 nM; IC50 [21]: ~100 nM; IC50 [23]: > 100 nM
7.31	0.882 nM	0.515 nM	1.87	2.76	15.8	0.739	158	112	22.9	708	207	49.7	C#Cc1c(F)ccc2cc(O)cc(-c3ncc4c(N5CCOC[C@H](CC#N)C5)nc(OC[C@@]56CCCN5C[C@H](F)C6)nc4c3F)c12 (single isomer, unassigned) [Compound 14B]	–	–	–	–	–	–	–	–

Further lines, the compound ahead of its results:

SMILES	IC50 [1] [nM]	IC50 [4]	IC50 [7]	IC50 [9] [nM]	IC50 [11] [nM]	IC50 [12] [nM]	IC50 [13] [nM]	IC50 [15] [nM]	IC50 [20] [nM]	IC50 [22] [nM]	IC50 [24] [nM]	IC50 [28] [nM]	IC50 [38] [nM]	IC50 [2] [nM]	IC50 [3] [nM]	IC50 [5] [nM]	IC50 [6] [nM]	IC50 [8] [nM]	IC50 [10] [nM]	IC50 [14] [nM]	also measured
C#Cc1c(F)ccc2cc(O)cc(-c3c(Cl)cc4c(N5CCCOCC5)nc(OC[C@@]56CCCN5C[C@H](F)C6)nc4c3F)c12 (atropisomer, axis not shown; (M)) [Compound 19B, (M)-4-(6-chloro-8-fluoro-2-(((2R,7aS)-2-fluorotetrahydro-1H-pyrrolizin-7a(5H)-yl)methoxy)-4-(1,4-oxazepan-4-yl)quinazolin-7-yl)-5-ethynyl-6-fluoronaphthalen-2-ol trifluoroacetic acid]	57	8.72 nM	5.27 nM	7.88	14.4	183	5.62	136	–	–	–	–	–	15.7	3.17	493	3.69	302	95.9	212	IC50 [16]: 6.65 nM
C#Cc1c(F)ccc2cc(O)cc(-c3ncc4c(N5CCCOC[C@H]5C)nc(OC[C@@]56CCCN5C[C@H](F)C6)nc4c3F)c12 (single isomer, unassigned) [Compound 16B]	7.46	1.72 nM	0.89 nM	2.3	2.22	21.5	0.576	10.4	5.07	1.44	53	8.77	5.82	1.64	0.994	98.7	1.12	58.3	15.7	38.5	IC50 [25]: 97.6 nM; IC50 [26]: 21.6 nM; IC50 [27]: 18.1 nM; IC50 [29]: 319 nM; IC50 [30]: 296 nM; IC50 [31]: 13.7 nM; IC50 [32]: 20.9 nM; IC50 [33]: 2.1 nM; IC50 [34]: 121 nM; IC50 [35]: 2.97 nM; IC50 [36]: 3.56 nM; IC50 [37]: 30.9 nM; IC50 [16]: 1.15 nM
C#Cc1c(F)ccc2cc(O)cc(-c3ncc4c(N5CCCOC[C@@H]5C)nc(OC[C@@]56CCCN5C[C@H](F)C6)nc4c3F)c12 (single isomer, unassigned) [Compound 16A]	315	3.88 nM	6.05 nM	37.2	14.2	741	3.78	469	40.5	42.6	1380	191	242	–	–	–	–	–	–	–	–
